Measured values taken from publication PMC3602354 (Chemical research in toxicology, 2013).
Several values for one entry are separate records, joined by “and”; a condition that tells them apart may be missing. Equal values may be shown once.

Columns and labels:
in vitro [1] = assay type: in vitro ADME, mouse; conditions: mouse, pH 7.4
[2] = test system: WT mouse nasal mucosa microsomes; test: in vitro; assay type: in vitro ADME; conditions: GS-DCBN formation; WT mouse nasal mucosa microsomes; mean ± SE, n=3
in vitro [3] = assay type: in vitro ADME, mouse; conditions: Cyp2a5-null, mouse, pH 7.4
[4] = test system: Cyp2a5-null mouse nasal mucosa microsomes; test: in vitro; assay type: in vitro ADME
in vitro [5] = assay type: in vitro ADME, human; conditions: both, human
[6] = test system: human fetal nasal mucosa microsomes; test: in vitro; assay type: in vitro ADME; conditions: GS-DCBN formation; human fetal nasal mucosa microsomes; mean ± SE, n=3
nasal mucosa [7] = test: Histopathological analysis of nasal mucosa in DCBN-treated WT mice; assay type: in vivo, mouse
nasal mucosa [8] = test: Histopathological analysis of nasal mucosa in DCBN-treated Cyp2a5-null mice; assay type: in vivo, mouse; conditions: DCBN 10 mg/kg single i.p., 24 h after treatment
[9] = Cyp2a5-null vs WT nasal mucosa microsomes

SMILES: N#Cc1c(Cl)cccc1Cl [DCBN, 2,6-dichlorobenzonitrile]
- Km (in vitro [1]): 0.43 ± 0.04 µM
- Vmax [2]: 1050 ± 30 pmol/min/mg protein
- Km (in vitro [3]): 4.2 ± 0.6 µM
- decrease in apparent Vmax compared to WT mice [4, 9]: ~ 4 fold
- increase in apparent Km compared to WT mice [4, 9]: ~ 10 fold
- reduction of efficiency for GS-DCBN formation compared to WT mice [4, 9]: ~ 40 fold
- Vmax ([4]; GS-DCBN formation, Cyp2a5-null mouse nasal mucosa microsomes, mean ± SE, n=3): 253 ± 12 pmol/min/mg protein
- Km at 60 min (in vitro [5]): 0.45 ± 0.1 µM
- Vmax [6]: 0.14 pmol/min/mg protein and 0.14 ± 0.01 pmol/min/mg protein
- histopathology of nasal mucosa (nasal mucosa [7]; DCBN 10 mg/kg single i.p., 24 h after treatment): moderate injury to the nasal mucosa
- histopathology of nasal mucosa (nasal mucosa [7]; DCBN 4 × 1 mg/kg s.c., 1.5-h intervals, 24 h after last treatment): essentially normal morphology
- histopathology of nasal mucosa (nasal mucosa [8]): essentially normal olfactory epithelium and BG
